Data taken from patent US9707244B2, “Compositions and methods for treating conditions that affect epidermis” (Gencia Corporation, priority 2013, dated 2017).

How the values were obtained:
[1] = test system: AG11073 fibroblasts from a person; assay: 3D collagen cell culture system, aged skin fibroblasts; assay type: cell-based, human; conditions: five days post-treatment
Experimental: The effects of Mitocreatine on skin fibroblasts cultured in a 3D matrix to better simulate in vivo milieu were examined. The cells were visualized by phase contrast light microscopy and their biological response to different concentrations of Mitocreatine evaluated. The 3D Collagen Cell Culture System from Millipore (Catalogue number ECM 675) was utilized.
All liquids were prepared according to manufacturer's instructions, and kept on ice. Tissue culture plates were coated with collagen by pipetting 500 μL of chilled Collagen Gel Solution into each well of a 24 well tissue culture plate. The plate was immediately transferred to a 37° C. incubator for 60 min to initiate polymerization of the collagen.
After the formation of the collagen gel, AG11073 and AG16409 cells were harvested and re-suspended at 4×10^5/mL and 1×10^6 cells were seeded onto the collagen gel. The cells were obtained using the procedure as described in Example 1.
After overnight incubation at 37° C. with 5% CO2 the media was replaced with fresh media containing various doses of Mitocreatine or the vehicle. Cells were visualized daily using phase contrast microscopy.
Fibroblasts from a person were cultured on a collagen matrix. Two days after seeding, cells were treated with a Mitocreatine at increasing amounts (0, 5, 15 and 25 μL). Five days post-treatment, collagen shrinkage was assayed by means of translucency. […]

[2] = test system: adult participants; assay: Double-blind, randomized, placebo-controlled study of 0.1% Mitocreatine lotion on the dorsum of the hand; assay type: in vivo, human
Experimental: This was followed by a double-blind, randomized, placebo-controlled safety and efficacy trial of 0.1% once-daily topical application of mitocreatine to the dorsum of hands. […]. After obtaining informed consent, participants were interviewed by a physician for screening for history of skin disease, allergy and general medical issues. An initial evaluation of skin on the dorsum of the hand was performed. Qualifying participants were issued the test articles and self-assessment forms, and instructed to apply the “Right hand” and “Left hand” vial contents to the dorsum of respective hands once daily, preferably in the evening. Participants were allowed the use of other cosmetics. Once a week the participants filled out the self-assessment forms as instructed during the initial evaluation. The questions in the forms pertained to comparisons of wrinkling, color, pigmented lesions, hydration, roughness and elasticity of skin between right and left hand. One question also elicited the subjective overall impression of skin appearance (better vs. worse) between the hands. […] The participants and the evaluator were blinded to the treated side until after the exit evaluation was finished.
Before the start of study a set of 30 consecutively numbered pairs of bottles containing drug or placebo creams was generated. Of these 30 pairs of bottles 15 pairs treated the right side treated and 15 pairs treated the left side with the drug. The order of right vs. left treatment pairs was random. Participants were assigned a number in the order of recruitment. 17 subjects participated in the study, whereof 15 completed the study. Two subjects dropped out of the study due to non-study related causes. Of the 15 remaining individuals, 9 had their right hand treated whereas 6 had their left hand treated. Data from initial and exit evaluations and self-report forms were tabulated and analyzed using Fisher's exact test and Pearson's chi-squared test. Skin on the dorsum of participants' hands was evaluated by a physician at the initial evaluation and at the conclusion of the study. None of the volunteers had lesions disqualifying from participation (neoplasm, large vascular lesions, wounds, burns, large scars).
The weekly self-report forms included questions about the following adverse outcomes: itching, redness, pain, swelling, blistering, other discoloration, skin cracking and dryness. Participants were also provided with a contact number and instructed to immediately report any of the listed or other worrisome events.

[3] = test system: EpiDerm Full Thickness 400 (EFT-400) tissues; assay: Mattek full-thickness skin model (EFT-400) skin thickness; assay type: cell-based; conditions: 25 nM with corticosteroid, 14 days; on average; p<0.001
Experimental: Following the protocol of Schoepe, we used the FTSM model to determine if co-treatment with Mitocreatine would reduce the loss in skin thickness produced by glucocorticoids.
2.5 mL of EpiDerm Full Thickness 400 (EFT-400) medium was dispensed into each well of the four 6-well plates aseptically in the tissue culture hood. The plates containing the EFT-400 tissues were removed from their plastic packaging and transferred using sterile forceps into the 6-well plates containing the 2.5 mL of EFT-400 media, making sure that no agarose adheres to the insert and that the media makes full contact with the underside of the tissue insert membrane (no air bubbles under the insert). The apical surface of the tissue should remain exposed to air (no media should be added to the side of the insert).
The tissues were equilibrated overnight at 37° C., 5% CO2. Treatment conditions are listed below in Table 5.
Day 2-13: The plates were visually examined and the media containing the test compounds was replenished each day.
Day 15: The inserts were dislodged from the support and the tissue carefully removed from the support with a scalpel.
The tissues were placed in 50 mL conical tubes containing 10% phosphate buffered formalin and sent for sectioning, histological processing and H&E staining Slides were visualized using a Leica Stereoscope equipped with a digital camera. Images were acquired and measured using ExoLabs software. Data was tabulated in Excel and the results were analyzed.

[4] = test system: C57BL/6J mice; assay: Fore-limb grip strength test; assay type: in vivo; conditions: 10, 20, 30 mg/kg p.o. once daily for 30 days
Experimental: Group Setting: C57BL/6J mice were randomly assigned into five groups with different treatment started with balanced full-paw and fore-paw grip strength. Seventy five female mice were dosed at 4 PM for 30 consecutive days (qd). • 1. Vehicle (p.o. via oral gavage once daily for 30 days, n=15) • 2. Creatine (300 mg/kg, p.o. via oral gavage once daily for 30 days, n=15) • 3. Mitocreatine (10 mg/kg, p.o. via oral gavage once daily for 30 days, n=15) • 4. Mitocreatine (20 mg/kg, p.o. via oral gavage once daily for 30 days, n=15) • 5. Mitocreatine (30 mg/kg, p.o. via oral gavage once daily for 30 days, n=15). One hundred female mice were tested before dosing for a baseline of grip strength. 75 mice were selected and randomly assigned into 5 groups for different treatment. Seventy five mice (group 1-5) were test on day 31. Mice were allowed to acclimate to the testing room for at least 30 min before tested. All animals were marked on the tail with a permanent mark pen. Mouse was lowered towards the grid on the push-pull gauge until it grabbed with both front paws Animal was gently pulled backwards by the tail with an angle less than 15° until it released its grip of both fore-paws. The maximal fore-limb grip force was recorded on the strain gauge. Test was repeated 3 times with 15 min interval each time and the average was used. […]

## CN(CC(=O)NCCC[P+](c1ccccc1)(c1ccccc1)c1ccccc1)C(=N)N.Cl.[Cl-] [Mitocreatine, N^2-[ammonio(imino)methyl]-N^2-methyl-N-[3-(triphenylphosphonio)propyl] glycinamide dichloride]
[1]
  collagen matrix translucency: dose-dependent increase
[2]; 0.1% lotion once daily, four weeks
  adverse outcomes reported by participants: No adverse outcomes
[2]; 0.1% lotion once daily, final follow-up visit
  pathological changes noted by the evaluating physician: No pathological changes
[2]; 13/15, p=0.0074 by binomial test
  participants who correctly identified the treated hand: 87%
[2]; drug hand, 7/15, p=0.0033
  participants with improvement in wrinkles: 45%
[2]; drug hand, 11/15, p=0.00025
  participants with an improvement in general skin health: 73%
[2]; drug hand, 13/15, p=0.0029
  participants with improvement in thickness: 87%
[2]; drug hand, 13/15, p=0.019
  participants with improvement in tightness: 87%
[2]; drug hand, 14/15, 0.1% lotion, four weeks, p=0.0142
  participants reporting an improvement in at least two measures: 93%
[3]
  improvement of skin thickness: 50%
[4]
  strength (fore limb grip force): Increases Endurance and Strength
